Experimental data reported in article PMC8956739, “A synthetic lipopeptide targeting top-priority multidrug-resistant Gram-negative pathogens” (Nature Communications, 2022).
Where “and” joins values, the source holds several entries; their conditions need not be identical. Equal values may be shown once. Residues, ends and D or L forms follow the SMILES beside them.

Assays:
[1] = test system: K. pneumoniae FADDI-KP065; format: cell-based, Klebsiella pneumoniae; conditions: carbapenem-resistant isolate
In short: (§1)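 Susceptibility: microdilution MIC in CaMHB.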

[2] = test system: K. pneumoniae FADDI-KP032; format: cell-based, Klebsiella pneumoniae; conditions: carbapenem-resistant isolate
In short: as §1

[3] = test system: A. baumannii AB5075; assay: In vitro passaging, emergence of resistance; format: cell-based, Acinetobacter baumannii
Protocol: Log-phase cultures (OD600 = 0.5, ~10^8 CFU/mL) of A. baumannii AB5075 were inoculated (1:10, v/v) in 200 μL fresh CaMHB (cation-adjusted Mueller–Hinton broth) containing 2, 8 and 16 μg/mL polymyxin B, colistin, F287, and F365 in a 96-well microplate with 4 biological replicates. The cultures were incubated at 37 °C for 12 h before the next dilution (1:10, v/v) with fresh CaMHB. Successive subculturing was conducted for 7 days.

[4] = test system: A. baumannii AB5075; assay: Transcriptomic analysis (RNA-Seq) of bacteria; format: cell-based, Acinetobacter baumannii; conditions: for logFC (Differential gene expression for all genes), Geneid ABUW_RS00005 / logFC (Differential gene expression for all genes), Geneid ABUW_RS00020 / logFC (Fold change), gene ABUW_RS00010 / logFC (Fold change), gene ABUW_RS00030 / logFC (Fold change), gene ABUW_RS00035 / logFC (Fold change), gene recF (ABUW_RS00015) / 4h_1h logFC (Differential gene expression for all genes), Geneid ABUW_RS00005 / 4h_1h logFC (Differential gene expression for all genes), Geneid ABUW_RS00010 / 4h_1h logFC (Differential gene expression for all genes), Geneid ABUW_RS00015 / 4h_1h logFC (Differential gene expression for all genes), Geneid ABUW_RS00020: RNA-Seq A. baumannii AB5075; for log2FC, gene ABUW_RS01945 (acyl-CoA thioesterase II) / log2FC, gene ABUW_RS02545 (acyl-CoA thioesterase) / log2FC, gene ABUW_RS05045 (acyl-CoA thioesterase) / log2FC, gene ABUW_RS17575 (acyl-CoA thioesterase): pathway Fatty Acid and Lipid Degradation; for 4h_1h logFC (Differential gene expression for all genes), Geneid ABUW_RS00005 / 4h_1h logFC (Differential gene expression for all genes), Geneid ABUW_RS00010 / 4h_1h logFC (Differential gene expression for all genes), Geneid ABUW_RS00015 / 4h_1h logFC (Differential gene expression for all genes), Geneid ABUW_RS00020: 4h vs 1h
[5] = test system: MDR clinical isolates of Enterobacterales (n = 177, 152 carbapenem-resistant); assay: Extended MIC screening, MDR clinical isolates; format: cell-based
Protocol: MICs were determined in cation-adjusted Mueller–Hinton broth (CaMHB) by the broth micro-dilution method against ATCC strains and clinical isolates. MICs in the presence of Survanta® were determined as described above against P. aeruginosa ATCC 27853. In the 100 μL of fresh CaMHB containing polymyxins, 10% Survanta® (v/v, 2.5 mg/mL phospholipids) was added. MICs in the presence and absence of Survanta® were compared to determine the effect of binding to lung surfactant on the antibacterial activity of polymyxins.

## CC[C@@H]1NC(=O)[C@@H](CC(C)C)NC(=O)[C@H](CCN)NC(=O)[C@@H](NC(=O)[C@H](CN)NC(=O)[C@@H](NC(=O)[C@H](CCN)NC(=O)c2ccc(Cl)cc2Cl)[C@@H](C)O)CCNC(=O)[C@H]([C@@H](C)O)NC(=O)[C@H](CCN)NC(=O)[C@H](CCN)NC1=O [Lipopeptide F365] (HELM PEPTIDE1{[O=C(c1ccc(Cl)cc1Cl)[*:2]].[Dab].T.[NC[C@H](N[*:1])C(=O)[*:2]].[Dab].[Dab].[dL].[Abu].[Dab].[Dab].T}$PEPTIDE1,PEPTIDE1,5:R3-11:R2$$$V2.0)
[1]
  MIC K. pneumoniae FADDI-KP065: <0.125 mg/L
[2]
  MIC K. pneumoniae FADDI-KP032: <0.125 mg/L
[3]; 8 ug/mL, time 0 h, passage 0, replicates rep1-rep4, raw OD600 (blank OD600 0.125333)
  OD600: 0.207 and 0.177 and 0.165 and 0.164
[3]; 8 ug/mL, time 12 h, passage 1, replicates rep1-rep4, raw OD600 (blank OD600 0.114667)
  OD600: 0.193 and 0.169 and 0.147 and 0.152
[3]; 8 ug/mL, time 24 h, passage 2, replicates rep1-rep4, raw OD600 (blank OD600 0.0956667)
  OD600: 0.091 and 0.092 and 0.09
[3]; 8 ug/mL, time 36 h, passage 3, replicates rep1-rep4, raw OD600 (blank OD600 0.088)
  OD600: 0.091 and 0.09 and 0.092
[3]; 8 ug/mL, time 48 h, passage 4, replicates rep1-rep4, raw OD600 (blank OD600 0.104667)
  OD600: 0.091 and 0.094 and 0.101
[3]; 8 ug/mL, time 60 h, passage 5, replicates rep1-rep4, raw OD600 (blank OD600 0.122333)
  OD600: 0.112 and 0.116 and 0.106 and 0.123
[3]; 8 ug/mL, time 72 h, passage 6, replicates rep1-rep4, raw OD600 (blank OD600 0.095)
  OD600: 0.092 and 0.085 and 0.096
[3]; 8 ug/mL, time 84 h, passage 7, replicates rep1-rep4, raw OD600 (blank OD600 0.091)
  OD600: 0.089 and 0.091 and 0.092 and 0.093
[3]; 8 ug/mL, time 96 h, passage 8, replicates rep1-rep4, raw OD600 (blank OD600 0.0953333)
  OD600: 0.09 and 0.092 and 0.097 and 0.093
[3]; 8 ug/mL, time 108 h, passage 9, replicates rep1-rep4, raw OD600 (blank OD600 0.100667)
  OD600: 0.111 and 0.118 and 0.121 and 0.105
[3]; 8 ug/mL, time 120 h, passage 10, replicates rep1-rep4, raw OD600 (blank OD600 0.0983333)
  OD600: 0.118 and 0.132 and 0.121 and 0.13
[3]; 8 ug/mL, time 132 h, passage 11, replicates rep1-rep4, raw OD600 (blank OD600 0.0843333)
  OD600: 0.12 and 0.124 and 0.123 and 0.117
[3]; 8 ug/mL, time 144 h, passage 12, replicates rep1-rep4, raw OD600 (blank OD600 0.091)
  OD600: 0.126 and 0.122 and 0.125 and 0.13
[3]; 8 ug/mL, time 156 h, passage 13, replicates rep1-rep4, raw OD600 (blank OD600 0.129)
  OD600: 0.117 and 0.116 and 0.13 and 0.112
[3]; 8 ug/mL, time 168 h, passage 14, replicates rep1-rep4, raw OD600 (blank OD600 0.101)
  OD600: 0.095 and 0.092
[3]; 4× MIC, 7-day passaging
  time to emergence of resistance: ≤ 3 days
[3]; 32× MIC
  growth over 7 days: No growth
[3]; in vitro passaging, concentration 8 ug/mL, time 168 h, passage 14, individual replicates rep1-rep4, not blank-subtracted (blank OD600 0.101)
  OD600: 0.093 and 0.094
[4]; H vs Cont, 1h
  logFC (Differential gene expression for all genes), Geneid ABUW_RS00005: 0.01563
  logFC (Differential gene expression for all genes), Geneid ABUW_RS00020: 0.4229
  logFC (Fold change), gene ABUW_RS00010: 0.4611
  logFC (Fold change), gene ABUW_RS00030: -0.6384
  logFC (Fold change), gene ABUW_RS00035: 1.28
  logFC (Fold change), gene recF (ABUW_RS00015): -0.2583
  log2FC, gene ABUW_RS01945 (acyl-CoA thioesterase II): 0.05276
  log2FC, gene ABUW_RS02545 (acyl-CoA thioesterase): 1.462
  log2FC, gene ABUW_RS05045 (acyl-CoA thioesterase): 0.342
  log2FC, gene ABUW_RS17575 (acyl-CoA thioesterase): -0.4502
[4]; H vs Cont, 4h
  logFC (Differential gene expression for all genes), Geneid ABUW_RS00005: -0.1188
  logFC (Differential gene expression for all genes), Geneid ABUW_RS00020: 0.1404
  logFC (Fold change), gene ABUW_RS00010: 1.271
  logFC (Fold change), gene ABUW_RS00030: -1.908
  logFC (Fold change), gene ABUW_RS00035: 1.362
  logFC (Fold change), gene recF (ABUW_RS00015): -0.8325
  log2FC, gene ABUW_RS01945 (acyl-CoA thioesterase II): -0.9573
  log2FC, gene ABUW_RS02545 (acyl-CoA thioesterase): 1.303
  log2FC, gene ABUW_RS05045 (acyl-CoA thioesterase): 0.7194
  log2FC, gene ABUW_RS17575 (acyl-CoA thioesterase): -2.7329
[4]; H
  4h_1h logFC (Differential gene expression for all genes), Geneid ABUW_RS00005: -0.4851
  4h_1h logFC (Differential gene expression for all genes), Geneid ABUW_RS00010: 0.8595
  4h_1h logFC (Differential gene expression for all genes), Geneid ABUW_RS00015: -1.098
  4h_1h logFC (Differential gene expression for all genes), Geneid ABUW_RS00020: 0.6821
[4]; L vs Cont, 1h
  logFC (Differential gene expression for all genes), Geneid ABUW_RS00005: 0.07464
  logFC (Differential gene expression for all genes), Geneid ABUW_RS00020: -0.04639
  logFC (Fold change), gene ABUW_RS00010: 0.04206
  logFC (Fold change), gene ABUW_RS00030: 0.5072
  logFC (Fold change), gene ABUW_RS00035: -0.01907
  logFC (Fold change), gene recF (ABUW_RS00015): 0.05956
  log2FC, gene ABUW_RS01945 (acyl-CoA thioesterase II): 0.4901
  log2FC, gene ABUW_RS02545 (acyl-CoA thioesterase): -0.0862
  log2FC, gene ABUW_RS05045 (acyl-CoA thioesterase): -0.2681
  log2FC, gene ABUW_RS17575 (acyl-CoA thioesterase): -0.08172
[4]; L vs Cont, 4h
  logFC (Differential gene expression for all genes), Geneid ABUW_RS00005: 0.1571
  logFC (Differential gene expression for all genes), Geneid ABUW_RS00020: -0.1135
  logFC (Fold change), gene ABUW_RS00010: 0.2996
  logFC (Fold change), gene ABUW_RS00030: 0.4017
  logFC (Fold change), gene ABUW_RS00035: 0.1258
  logFC (Fold change), gene recF (ABUW_RS00015): -0.3068
  log2FC, gene ABUW_RS01945 (acyl-CoA thioesterase II): -0.2225
  log2FC, gene ABUW_RS02545 (acyl-CoA thioesterase): -0.9002
  log2FC, gene ABUW_RS05045 (acyl-CoA thioesterase): 0.02763
  log2FC, gene ABUW_RS17575 (acyl-CoA thioesterase): -0.0188
[4]; L
  4h_1h logFC (Differential gene expression for all genes), Geneid ABUW_RS00005: -0.03686
  4h_1h logFC (Differential gene expression for all genes), Geneid ABUW_RS00010: -0.6141
  4h_1h logFC (Differential gene expression for all genes), Geneid ABUW_RS00015: -0.239
  4h_1h logFC (Differential gene expression for all genes), Geneid ABUW_RS00020: -0.06215
[5]; isolates with MIC 0.05 µg/mL
  Number of isolates: 0
[5]; isolates with MIC 0.125 µg/mL
  Number of isolates: 9
[5]; isolates with MIC 0.25 µg/mL
  Number of isolates: 68
[5]; isolates with MIC 0.5 µg/mL
  Number of isolates: 72
[5]; isolates with MIC 1 µg/mL
  Number of isolates: 5
[5]; isolates with MIC 2 µg/mL
  Number of isolates: 1
[5]; isolates with MIC 4 µg/mL
  Number of isolates: 2
[5]; isolates with MIC 8 µg/mL
  Number of isolates: 0
[5]; isolates with MIC 16 µg/mL
  Number of isolates: 5
[5]; isolates with MIC 32 µg/mL
  Number of isolates: 2
[5]; isolates with MIC 64 µg/mL
  Number of isolates: 4
[5]; isolates with MIC >64 µg/mL
  Number of isolates: 6
